In patent US8236789B2, “1-adamantyl azetidin-2-one derivatives and drugs containing same” (Kowa Company, Ltd., priority 2008, dated 2012):

How the values were obtained:
Assay type in all cases: biochemical
mouse 11β-HSD1 = target: T1, mouse 11β-HSD1 (Mus musculus, UniProt P50172); assay: Enzyme inhibitory activity assay, lysate of CHO-K1 cells stably expressing mouse 11β-HSD1, cortisol by competitive ELISA; conditions: Table 2; cell lysate, 100 nmol/L cortisone, NADPH, 37° C. 1 hour; read-out: in vitro assay (IC50 uM) m HSD1
T1 construct: expressed in transfected cells
Experimental: (§1) 1. Human 11β-HSD1-, Human 11β-HSD2- and Mouse 11β-HSD1-Gene Clonings and Establishment of Stably Expressing Cells
(§2) Human 11β-HSD1- and human 11β-HSD2-expressing vectors were transfected into human kidney-derived cell line, HEK293 cells, using a transfection reagent, jet PEI (Funakoshi). Mouse 11β-HSD1 was transfected to Chinese hamster ovary-derived cell line, CHO-K1 cells. Selection was conducted with 200-400 μg/mL of zeocine (Invitrogen) to provide stably expressing-cell clones. The stably expressing cells were suspended in buffer solution A (20 mmol/L Tris-HCl, pH 7.4, 250 mmol/L sucrose, 1 mmol/L EGTA, 1 mmol/L EDTA, 1 mmol/L MgCl2), sonicated, and then stored at −80° C.
(§3) 2. Assay of Enzyme Inhibitory Activity
(§4) An enzymatic reaction was conducted using a polystyrene 96-well plate. Each well was added with 1 μL of a test agent dissolved in DMSO and then diluted (0.003 to 3 mmol/L), and further added with 10 μL of cell lysate diluted to a concentration of 0.1 mg/mL to 0.4 mg/mL. Next, 90 μL of buffer solution A containing substrate (100 nmol/L cortisone or cortisol) and coenzyme (400 μmol/L NADPH or NAD+) was added and the mixture was incubated at 37° C. for 1 hour. The enzymatic reaction was stopped by treating at 95° C. for 3 minutes. Cortisol that was present in the reaction solution was determined by a competitive ELISA shown below.
(§5) Anti-rabbit IgG antibody (Chemi-con) diluted to 2 μg/mL with carbonate buffer solution (pH 9.6) was added in 100 μL each to a 96-well immuno plate (Nunc) and immobilized by an incubation at 4° C. overnight. […] After washed three times with buffer solution B containing 0.05% Tween 20, the plates were allowed to develop color by adding 100 μL, of color reagent, TMB (Moss). The color reaction was stopped by 25 μL of 1 mol/L sulfuric acid and the absorbance was determined at 450 nm with a microplate reader (Molecular Device, VersaMax).

human 11β-HSD2 = target: T2, human 11β-HSD2 (Homo sapiens, UniProt P80365); assay: Enzyme inhibitory activity assay, lysate of HEK293 cells stably expressing human 11β-HSD2, cortisol by competitive ELISA; conditions: Table 1; cell lysate, 100 nmol/L cortisol, NAD+, 37° C. 1 hour; read-out: in vitro assay (IC50 uM) h HSD2
T2 construct: expressed in transfected cells
T2 sequence (P80365 1-405): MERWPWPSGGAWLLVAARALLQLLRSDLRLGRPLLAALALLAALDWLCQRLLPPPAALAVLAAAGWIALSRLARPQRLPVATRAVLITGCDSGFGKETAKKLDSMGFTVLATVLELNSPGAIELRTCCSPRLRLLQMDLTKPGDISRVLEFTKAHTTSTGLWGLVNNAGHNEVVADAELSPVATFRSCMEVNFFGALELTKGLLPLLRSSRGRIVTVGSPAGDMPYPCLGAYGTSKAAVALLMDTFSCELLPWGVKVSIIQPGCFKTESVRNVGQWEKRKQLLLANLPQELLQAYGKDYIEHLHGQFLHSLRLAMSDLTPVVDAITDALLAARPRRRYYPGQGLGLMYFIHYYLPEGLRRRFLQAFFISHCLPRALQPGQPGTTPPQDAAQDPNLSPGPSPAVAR
Experimental: as §1
Human 11β-HSD1-, human 11β-HSD2-, and mouse 11β-HSD1-gene clonings were conducted using as a template a reverse transcription product of human-liver RNA, human-kidney RNA (CELL APPLICATIONS), and mouse-kidney RNA respectively, by means of PCR cloning with reference to nucleotide sequences of Genbank Accession Nos. NM_005525, NM_000196, and NM_008288. The obtained PCR products of about 0.9 kbp, 1.2 kbp, and 0.9 kbp were subcloned into an expression vector pcDNA3.1+/Zeo (Invitrogen).
as §2, §3, §4
Anti-rabbit IgG antibody (Chemi-con) diluted to 2 μg/mL with carbonate buffer solution (pH 9.6) was added in 100 μL each to a 96-well immuno plate (Nunc) and immobilized by an incubation at 4° C. overnight. 50 μL of enzymatic reaction solution was put onto the plates, and further, anti-cortisol antibody (Cosmo Bio) and HRP-labeled cortisol (Cosmo Bio), diluted with buffer solution B (25 mmol/L Tris-HCl pH 7.4, 137 mmol/L NaCl, 2.68 mmol/L KCl), were added in 50 μL respectively and incubated at 4° C. overnight. After washed three times with buffer solution B containing 0.05% Tween 20, the plates were allowed to develop color by adding 100 μL, of color reagent, TMB (Moss). The color reaction was stopped by 25 μL of 1 mol/L sulfuric acid and the absorbance was determined at 450 nm with a microplate reader (Molecular Device, VersaMax).
The values of human 11β-HSD1, human 11β-HSD2, and mouse 11β-HSD1 activities were subtracted from 100, and the resultant values were regarded as the respective 11βHSD inhibition rates of example compounds. […] The comparison of human 11β-HSD1 and human 11β-HSD2 inhibiting activities is shown in Table 1, and the comparison of human 11β-HSD1 and mouse 11β-HSD1 inhibiting activities is shown in Table 2.

human 11β-HSD1 = target: T3, human 11β-HSD1 (Homo sapiens, UniProt P28845); assay: Enzyme inhibitory activity assay, lysate of HEK293 cells stably expressing human 11β-HSD1, cortisol by competitive ELISA; conditions: Table 1; cell lysate, 100 nmol/L cortisone, NADPH, 37° C. 1 hour; read-out: in vitro assay (IC50 uM) h HSD1
T3 construct: expressed in transfected cells
Experimental: as §1, §2, §3, §4, §5

T3 sequence (P28845 whole entry): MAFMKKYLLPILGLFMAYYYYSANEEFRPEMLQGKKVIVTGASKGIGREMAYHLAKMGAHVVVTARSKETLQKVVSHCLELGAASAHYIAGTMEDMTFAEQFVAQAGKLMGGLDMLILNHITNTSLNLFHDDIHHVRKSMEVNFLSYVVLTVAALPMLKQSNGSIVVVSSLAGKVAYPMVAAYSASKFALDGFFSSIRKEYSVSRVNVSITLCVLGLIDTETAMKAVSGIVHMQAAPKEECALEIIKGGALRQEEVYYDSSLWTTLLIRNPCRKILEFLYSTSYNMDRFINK
T1 sequence (P50172 whole entry): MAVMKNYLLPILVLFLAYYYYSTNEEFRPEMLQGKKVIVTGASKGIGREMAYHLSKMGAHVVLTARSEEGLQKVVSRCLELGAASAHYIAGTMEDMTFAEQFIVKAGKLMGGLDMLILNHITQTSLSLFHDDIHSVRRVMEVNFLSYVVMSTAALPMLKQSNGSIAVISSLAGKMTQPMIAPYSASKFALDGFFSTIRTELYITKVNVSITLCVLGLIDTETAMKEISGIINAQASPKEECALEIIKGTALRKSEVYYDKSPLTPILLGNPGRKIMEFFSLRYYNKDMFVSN

| Compound | IC50 (mouse 11β-HSD1) | IC50 (human 11β-HSD2) | IC50 (human 11β-HSD1) |
| --- | --- | --- | --- |
| CC1(C)C(=O)N(C2C3CC4CC(C3)CC2C4)C1C1(c2ccc(Cl)cc2)CC1 (stereo not drawn) [Example 70, 4-[1-(4-chlorophenyl)cyclopropyl]-1-(adamantan-2-yl)-3,3-dimethylazetidin-2-one] | 0.0078 µM | 4.1 µM | 0.11 µM |
| CC1(C)C(=O)N(C2C3CC4CC(C3)CC2C4)C1C1(c2ccccc2)CC1 (stereo not drawn) [Example 71, 1-(adamantan-2-yl)-3,3-dimethyl-4-(1-phenylcyclopropyl)azetidin-2-one] | 0.0061 µM | 4.3 µM | 0.059 µM |
